The test system of one experiment is HCC827. In words: Growth of cancer cells (Cell Titer-Glo viability), HCC827. The class given is cell-based. As to conditions: Homo sapiens; HCC827 (mutant EGFR del19), 72 hrs. An outline of the steps: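 Cells are counted as viable by CellTiter-Glo chemiluminescence. Murine BaF3 lines depend on a stably transfected TEL-fused kinase after IL-3 withdrawal, and the NSCLC lines express mutant EGFR.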
For orientation: Cellular ATP, detected with luciferase, serves as a proxy for viable cell number.

In experiment [1] the test system is EGFR protein (EGFR delE746_A750, PC-9). The experiment is described as follows: Effect on signaling pathway in cells, PC-9. As to conditions: PC-9 (EGFR delE746_A750), 4 h. The experiment is classed as cell-based, human. An excerpt: In four cell lines (all purchased from ATCC) including non-small cell lung cancer cell line A549 (expressing wild-type EGFR gene), non-small cell lung cancer cell line H1975 (expressing EGFR L858R/T790M double mutant gene), non-small cell lung cancer cell line H3255 (expressing EGFR L858R mutant gene) and non-small cell lung cancer cell line PC-9 (expressing EGFR delE746_A750 mutant gene), the effect of Compound 1 on EGFR or other protein kinases related to signaling pathways of EGFR such as Stat3, AKT, ErK, eIF4E, 4EBP1, P70S6K was assessed by assaying a number of cellular biochemical and functional endpoints. […] The effect of Compound 1 on phosphorylation of Stat3Y705, AKT T308, AKT 5473, Erk T202/204, EGFR Y1068, P70S6K Thr389, eIF4E Ser209, Erk T202/204, 4EBP1 (Thr37/46) in these cell lines was assayed (FIGS. 1a to 1d).

The test system of a further experiment is A549. In words: Effect on cell cycle (PI staining, flow cytometer), A549. The experiment is classed as cell-based, human. As to conditions: A549 (wild-type EGFR), 24 hours and 48 hours. An excerpt: In order to study which growth phase the cell was halted after administration of the drugs, five cell lines including non-small cell lung cancer cell line A549 (expressing wild-type EGFR gene), non-small cell lung cancer cell line H1975 (expressing EGFR L858R/T790M double mutant gene), non-small cell Lung cancer cell line PC-9 (expressing EGFR delE746_A750 mutant gene), non-small cell lung cancer cell line H3255 (expressing EGFR L858R mutant gene) and non-small cell lung cancer cell NCI-H3122 (expressing ALK gene) were tested for effect of Compound 1 on cell cycle distribution. Two cell lines including non-small cell lung cancer cell NCI-H3122 (expressing ALK gene) and non-small cell lung cancer cell H1975 (expressing EGFR L858R/T790M double mutant gene) were tested for effect of Compound 10 on cell cycle distribution. […]

On to `C=CC(=O)Nc1cc(Nc2ncc(Cl)c(Nc3ccccc3S(=O)(=O)C(C)C)n2)c(OC)cc1N1CCN(CC)CC1` [Compound 1, N-(5-(5-chloro-4-(2-(isopropylsulfonyl)phenylamino)pyrimidin-2-ylamino)-2-(4-ethylpiperazin-1-yl)-4-methoxyphenyl)acrylamide], for which halving of growth with HCC827 (GI50) required 3 nM. The “concentration able to significantly inhibit the phosphorylation of EGFR protein (also affects AKT and ERK phosphorylation)” value in experiment [1] turned out to be 0.3 µM. Moreover, the “effect on cell cycle” value in the experiment on A549 is given as “certain effect”.

In general, GI50 refers to the concentration at which growth is held to half of that of the control. Lower therefore signals greater sensitivity of the cells.

The values are drawn from US10350210B2, “EGFR and ALK dual inhibitor” (PRECEDO PHARMACEUTICALS CO., LTD, priority 2015, dated 2019).
